Results on 92 molecules are retold here after a melting point compilation (Tetko et al.; mined from patent text by program, amines drawn as free bases though some values may be those of a salt).

SMILES strings stand for the structures. Some results are limits rather than exact numbers.

In the case of `CSCn1c(C(F)(F)F)nc2c(Br)cc(C(F)(F)F)cc21`, the melting point was 56 to 60 °C.
To `CC(C)(C)c1cc(C2=NOC(CC(=O)Nc3ccc([N+](=O)[O-])cc3)C2)cc(C(C)(C)C)c1O` (configuration not stated) belongs 149 to 151 °C.
Molecule `Cn1c(CO)nc2cccnc21` yielded a melting point of 229 to 231 °C.
`COc1ccccc1CSc1nc2cnccc2[nH]1` showed a melting point of 193 to 195 °C.
For `Nc1ccc(CC(=O)Nc2ccc(Nc3ccccc3)cc2)cc1` the value was 162 to 163 °C.
For `Cc1nnc(-c2ccc3occ(-c4ccc(OC(F)(F)F)cc4)c3c2)o1`, the melting point was in the range of 129 to 130 °C.
In the case of `CNC(=S)N1CCc2c(ncn2C)C1`, the melting point turned out to be 238 °C.
Turning to `CC1(COCCCCCCOc2ccc(C(=O)O)cc2)COC1`, the melting point turned out to be 58.5 °C.
In turn, `CSCCCNc1cn(-c2cccnc2)nc1Cl` displayed a melting point of 80 to 81 °C.
The molecule `Cc1ccccc1C(=O)P1(=O)Oc2ccccc2-c2ccccc21` (configuration not stated) displayed a melting point of 102 to 104 °C.
`CCOC(=O)C1=CCCCC1S(=O)(=O)Nn1cccc1CC` (configuration not stated) had a melting point of 77 to 78 °C.
`CC(C)OC(=O)N1CCC(c2nc3cc(-c4ccc(C(F)F)cc4)ccc3o2)CC1`: the melting point lay in the range of 151 to 154 °C.
In the case of `O=C1Cc2ccc(Cl)cc2C(c2ccccc2)C1` (configuration not stated), the melting point was in the range of 61 to 62 °C.
For `Cc1cccc(C)c1NC(=O)CN1CCN(CC(O)CC(c2ccc(F)cc2)c2ccc(F)cc2)C(C(N)=O)C1` (configuration not stated), the melting point is 110 °C.
To `CC(=O)Nc1cc(-c2c(-c3cccc(C)c3)nc3cccnn23)ccn1` belongs 227 to 228 °C; to `CS(=O)(=O)Nc1ccc(NC(=O)CCl)cc1`, 174 to 177 °C.
`Nc1ncc(Sc2ncccn2)s1`: the melting point fell in the range of 175 to 177 °C.
For `Cn1nc2c(N)nc3c(c2c1CCCCNC(=O)N1CCOCC1)CCCC3` the value was 95 °C.
Molecule `N#Cc1cc(-c2ncccc2C(=O)O)ccc1OCCc1ccccc1[N+](=O)[O-]` gave a melting point of 216 to 217 °C.
For `CC(=O)c1cccc(C2=C(c3ccc(S(C)(=O)=O)cc3)OC(C)(C)C2=O)c1` the value was 189 to 190 °C.
`O=C1NC(=S)SC1=Cc1ccc2c(c1)N(Cc1cccc(-c3ccncc3)c1)C(=O)CO2` returned a melting point of 297 to 299 °C.
`NNc1ccc2c(c1)CCNC2=O` yielded a melting point of 158 to 160 °C.
Molecule `O=C(O)c1ccc(=O)n(-c2ccccc2)c1` showed a melting point of 115 to 120 °C.
For `COc1cc(C)c([N+](=O)[O-])c(C)c1`, the melting point lay in the range of 50 to 52 °C.
In turn, `CN1CCc2nc3ccc(Cl)cc3c(Nc3ccccc3)c2C1` came in with a melting point of 137 to 139 °C.
For `CCn1cc(CN(C(=O)C2CCc3c(O)cccc32)c2ccc(C(C)C)cc2)cn1` (configuration not stated) the value was 205 to 206 °C; for `CCn1c(=S)sc2c(=N)n(NC(N)=O)cnc21`, 212 °C; for `Nc1nc2c(ncn2CCC(CO)COC(=O)c2ccccc2)c(=O)[nH]1` (configuration not stated), 156 to 168 °C.
Take `Cc1noc(NS(=O)(=O)c2ccsc2C(=O)Nc2cccc(C(=O)O)c2)c1Br`: the melting point was in the range of 183 to 185 °C.
For `c1ccc(COc2ccc(OCC3CO3)cc2)cc1` (configuration not stated) the value was 68 °C; for `O=C1Nc2cccnc2N(C(=O)CCCl)c2ccccc21`, 216 to 218 °C.
For the molecule `C1=C(CCc2c[nH]c3ccccc23)CCNC1`, the melting point worked out at 155 °C.
Consider `NC(=S)c1cccc2nnsc12`, for which the melting point lay in the range of 129 to 131 °C.
In the case of `O=C(Nc1cccc(F)c1)c1cccc(Oc2cccc(C(F)(F)F)c2)n1`, the melting point was in the range of 74 to 75 °C.
With `O=C(NS(=O)(=O)c1ccc(Cl)cc1)C1=NN(c2ccc(Cl)cc2)C(c2ccccc2)C1` (configuration not stated), the melting point fell in the range of 226 to 229 °C.
With `O=S1(=O)CCN(c2nc3c(-c4nc(C5CC5)no4)ncn3c3ccccc23)CC1`, the melting point lay in the range of 328 to 335 °C.
`COc1ccc(C=C2NC(=O)NC2=O)cc1OC` registered a melting point of 153 to 158 °C.
As for `CN1Cc2c(C(=O)OC(C)(C)C)ncn2-c2ccccc2C1=S`, the melting point lay within 207 to 208 °C.
`CCOCc1nc2c(N)nc3ccccc3c2n1CC(C)(C)CS(=O)(=O)NC`: the melting point was in the range of 161 to 163 °C.
For `Cc1cnc(N2CCC(c3ccc(S(N)(=O)=O)cc3)CC2)n1C`, the melting point was in the range of 256 to 257 °C.
On to `O=C(C=Cc1ccc2ccccc2c1)NCCCCCC(=O)NO`, for which the melting point is 161 to 163 °C.
For `CC(C)[N+]([O-])=Cc1cccc(N)c1` the value was 103 to 106 °C; for `CC(C)(C)C(=O)c1ccc(C(Br)Br)cc1`, 65 to 68 °C; for `Cc1oc(C(=O)NCc2ccc3c(c2)OCO3)c(C)c1-c1nc2ccc(C(=O)c3ccccc3)cc2[nH]1`, 122 to 125 °C.
To `N#Cc1c(N2CCc3ccccc3CC2)[nH]c(=S)[nH]c1=O` belongs > 200 °C; to `O=C(CCc1cccc(Br)c1)c1cnc2sc3c(n12)CCCCC3`, 77 to 79 °C; to `CNS(=O)(=O)c1ccc(Nc2cc(N3CCCC3)cc(-c3ccc(OC(F)(F)F)cc3)n2)cc1`, 83 to 85 °C.
To `CCCCC(=NNC(N)=S)OCC` belongs 73 to 74.5 °C; to `CCCC(Cn1cncn1)(OCC)c1ccc(Cl)cc1Cl` (configuration not stated), 67 °C; to `Cn1cccc1C(=O)Nc1ccc(-n2nc(C(F)(F)F)cc2C(F)(F)F)cc1`, 148 to 149 °C.
As for `O=C(O)c1ccccc1Oc1ccc(C(F)(F)F)cc1NS(=O)(=O)c1ccc(F)cc1`, the melting point lay within 159 to 160 °C.
To `O=C(O)Cc1c(C(=O)O)c2cc(Oc3ccc(Cl)cc3)ccc2n1-c1ccc(N2CCCCC2)cc1` belongs 183 to 187 °C.
Turning to `COc1cc2c(c(OC)c1OC)-c1ccc(O)cc1[C@@H](NC(C)=O)CC2`, the melting point turned out to be 157 °C.
Regarding `CCOC(=O)c1nc(NC)sc1-c1ccncc1`, the melting point was in the range of 136 to 138 °C.
For `Cc1cccc(NC(=O)NC2N=C(c3ccccc3F)c3ccccc3N(Cc3ccc4ccccc4n3)C2=O)c1` (racemic) the value was 224 to 225 °C.
To `Cc1nc(Sc2ncccc2C(=O)O)sc1CC(=O)O` belongs 233 to 235 °C; to `CCCn1nc2c(-c3ccccc3)cccc2c1-c1ccc(OC)cc1`, 128 to 129 °C.
To `COc1ccc(S(=O)(=O)C(C)(Cc2ccccc2Br)C(=O)NO)cc1` (configuration not stated) belongs 93 to 96 °C.
`CCc1ccc2[nH]c(=O)oc(=O)c2c1` yielded a melting point of 178 to 181 °C.
For `Cc1[nH]c2ccc(Br)cc2c1-c1ccncc1` the value was 248 °C; for `Clc1cc(-c2ccccc2)ncn1`, 95 to 98 °C; for `CN(C)CCNC(=O)Cc1ccc(NC(=O)C2CCN(C(=O)OCc3ccccc3)CC2)cc1`, 169 to 170 °C.
With `CCOCn1c(Sc2ccc(Cl)c(Cl)c2)cc(C#N)c1-c1ccc(Cl)cc1`, the melting point was in the range of 95 to 97 °C.
As to `Cc1noc(NS(=O)(=O)c2ccccc2-c2ccc(-c3ncco3)cc2CN2CCc3ccccc3C2=O)c1C`, the melting point lay within 127 to 135 °C.
For `O=Cc1c2ccccc2c(Cl)c2cc(Cl)ccc12` the value was 174 to 175 °C; for `CNC(=O)CCN1CCC(C(O)(c2ccc(F)cc2)c2ccc(F)cc2)CC1`, 127 to 129 °C.
Consider `N#CSc1cc(Cl)c(Cl)c2sc(NC(=O)Nc3ccc(Cl)cc3)nc12`, for which the melting point was 238 to 239 °C.
As for `N#Cc1c(N)nc2ccc(N3CCN(Cc4ccccc4)CC3)cc2c1N=Cc1ccccc1`, the melting point amounted to 202 °C.
In turn, `O=c1cc(-c2ccccc2)oc2ccc(OCCCCCCCN3CCC(O)CC3)cc12` registered a melting point of 135 to 136 °C.
Regarding `COC1CCC2C3CCc4cc(O)c(C=O)cc4C3CCC12C` (configuration not stated), the melting point was 120 to 121 °C.
As for `Cc1c(SCCCN2CCOCC2)ccnc1CSc1nc2ccccc2[nH]1`, the melting point fell in the range of 149 to 150 °C.
As to `Nc1ccc(CN2C(=O)[C@H]3CCC[C@H]3Nc3ccccc32)cc1` (relative stereo), the melting point was 149 to 150 °C.
Molecule `CC1(C)CCC(C)(C)C1OS(C)(=O)=O` yielded a melting point of 46 °C.
Regarding `N#CCc1ccc(OCc2ccccc2)cc1OCc1ccccc1`, the melting point is 99 to 100 °C.
Consider `Cc1ccc(C(=O)O)c([N+](=O)[O-])c1`, for which the melting point was 156 to 157 °C.
Regarding `CCc1ccc(Nc2nc3cc([N+](=O)[O-])ccc3o2)cc1`, the melting point fell in the range of 172 to 173 °C.
`Cc1cc(=O)c(-c2ccc(Cl)c(Cl)c2)c(-c2ccccc2)o1` returned a melting point of 104 °C.
To `CCOC(=O)c1cc2c(F)ccc(Cl)c2s1` belongs 63 to 64 °C; to `C=CCN1C2CCC3C1CCC2N3C(c1ccc(C(=O)N(CC)CC)cc1)c1cccc(O)c1` (configuration not stated), 147 to 150 °C.
With `Cc1oc(-c2cccs2)nc1COc1ccc(CCCCn2ccnc2)cc1`, the melting point lay in the range of 85 to 86 °C.
As for `Cc1cccc2cc(C3CCN(C)CC3)[nH]c(=O)c12`, the melting point is 200 to 202 °C.
For `NC(=O)C1CCc2sc3ccccc3c2C1` (configuration not stated), the melting point is 153 to 155 °C.
For `CCCc1c(OCc2ccc(C(=O)NC(C)CCCc3cccnc3)cc2)ccc(C(C)=O)c1O` (configuration not stated), the melting point was in the range of 117 to 120 °C.
For `Cc1cccc(NC(=O)NCC(=O)N(CC(=O)N(C)c2ccc(F)cc2F)c2ccccc2)c1` the value was 100 °C; for `Cc1cccc2sc(NN)nc12`, 161 to 166 °C; for `CS(=O)(=O)c1ccc(-c2[nH]c3ccc(Cl)cc3c2-c2ccccc2)cc1`, 281 to 283 °C.
The molecule `COC1C=C(c2ccc(C#N)cc2)C(OC)O1` (configuration not stated) yielded a melting point of 71 to 72 °C.
Consider `Nc1ccccc1C(=O)Nc1nnn[nH]1`, for which the melting point lay within 253 to 254 °C.
In the case of `O=C1Cc2ccccc2C(c2cccc(Cl)c2)N1` (configuration not stated), the melting point fell in the range of 133 to 134 °C.
For `COc1ccc(N2CCN(c3ccc(-n4cnn(C(C)C)c4=O)cc3)CC2)cc1` the value was 210 °C.
For `O=C1Nc2cc(F)ccc2C12COc1cc3c(cc12)CCO3` (configuration not stated) the value was 249 to 251 °C; for `FC(F)(F)c1cc(-c2ccnc(Nc3ccc4c(c3)OCCO4)c2)cc(C(F)(F)F)c1`, 130 to 132 °C.
